Assay results reported in patent US20240228489A1, “POSITIVE ALLOSTERIC MODULATORS OF THE MUSCARINIC ACETYLCHOLINE RECEPTOR M1” (Vanderbilt University, priority 2021, published 2024).

Columns and labels:
human mAChR M1 [1] = molecular target: T1, human mAChR M1 (Homo sapiens, UniProt P11229); assay: mAChR M1 cell-based functional assay (calcium mobilization), agonist mode: compound alone, Emax relative to acetylcholine maximum; conditions: for Agonist Activity Human M1 EC50 / EC50: human mAChR M1; for Emax: relative to the maximum for acetylcholine
T1 sequence (P11229 1-460): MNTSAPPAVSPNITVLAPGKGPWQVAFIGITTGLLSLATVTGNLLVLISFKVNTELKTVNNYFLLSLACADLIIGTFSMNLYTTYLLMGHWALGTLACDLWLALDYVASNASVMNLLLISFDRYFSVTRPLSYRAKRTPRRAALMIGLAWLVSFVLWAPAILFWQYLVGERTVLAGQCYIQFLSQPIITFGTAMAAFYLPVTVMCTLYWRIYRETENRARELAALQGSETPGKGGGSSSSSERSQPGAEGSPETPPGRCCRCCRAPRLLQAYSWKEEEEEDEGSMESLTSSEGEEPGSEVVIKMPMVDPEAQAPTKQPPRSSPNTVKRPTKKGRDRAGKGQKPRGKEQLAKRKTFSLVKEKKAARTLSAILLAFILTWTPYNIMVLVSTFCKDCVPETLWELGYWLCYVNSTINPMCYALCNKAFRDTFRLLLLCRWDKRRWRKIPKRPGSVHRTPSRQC
Procedure, shortened: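 CHO-K1 cells stably expressing hM1 were loaded with Fluo-4 AM, and calcium flux was read as fluorescence ratio. Compound was added alone from an 11-point 1:3 curve, and the agonist response was fitted with a four-parameter logistic. Emax is expressed relative to the acetylcholine maximum.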

human mAChR M1 [2] = molecular target: T1, human mAChR M1; assay: mAChR M1 cell-based functional assay (calcium mobilization), PAM mode: increase in the EC20 acetylcholine response
Procedure, shortened: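 CHO-K1 cells stably expressing hM1, Fluo-4 loaded, read by FDSS calcium flux at 1 Hz. Compound (11-point 1:3 CRC) added at 4 s, EC20 acetylcholine at 144 s, EC80 at 230 s. PAM activity taken as concentration-dependent increase in EC20 ACh response, fitted by four-parameter logistic for EC50/Emax.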

Row | SMILES | Agonist Activity Human M1 EC50 (human mAChR M1 [1]) | Emax (human mAChR M1 [1]) [%] | EC50 (human mAChR M1 [2]) [µM] | Emax (human mAChR M1 [2]) [%] | EC50 (human mAChR M1 [1]) [µM]
1 | [2H]C1([2H])c2ncccc2C(=O)N1Cc1c(F)cc(-c2ccc(F)c3nn(C([2H])([2H])[2H])cc23)cc1F [Compound 45, 6-(2,6-difluoro-4-(7-fluoro-2-(methyl-d^3)-2H-indazol-4-yl)benzyl)-6,7-dihydro-5H-pyrrolo[3,4-b]pyridin-5-one-7,7-d2] | Inactive | 2 | 0.411 | 73 | 
2 | [2H]C1([2H])c2ncccc2C(=O)N1Cc1ccc(-c2cccc3nn(C([2H])([2H])[2H])cc23)cc1C [Compound 46, 6-(2-methyl-4-(2-(methyl-d^3)-2H-indazol-4-yl)benzyl)-6,7-dihydro-5H-pyrrolo[3,4-b]pyridin-5-one-7,7-d2] | Inactive | 9 | 0.681 | 77 | 
3 | [2H]C1([2H])c2ncccc2C(=O)N1Cc1ccc(-c2ccc(F)c3nn(C([2H])([2H])[2H])cc23)cc1C [Compound 47, 6-(4-(7-fluoro-2-(methyl-d3)-2H-indazol-4-yl)-2-methylbenzyl)-6,7-dihydro-5H-pyrrolo[3,4-b]pyridin-5-one-7,7-d2] | Inactive | 5 | 0.9 | 76 | 
4 | [2H]C1([2H])c2ncccc2C(=O)N1Cc1ccc(-c2ccc(F)c3nn(C)cc23)cc1C [Compound 48, 6-(4-(7-fluoro-2-methyl-2H-indazol-4-yl)-2-methylbenzyl)-6,7-dihydro-5H-pyrrolo[3,4-b]pyridin-5-one-7,7-d2] |  | 9 | 0.488 | 85 | > 10
5 | [2H]C1([2H])c2ncccc2C(=O)N1Cc1c(F)cc(-c2cccc3nn(C4COC4)cc23)cc1F [Compound 49, 6-(2,6-difluoro-4-(2-(oxetan-3-yl)-2H-indazol-4-yl)benzyl)-6,7-dihydro-5H-pyrrolo[3,4-b]pyridin-5-one-7,7-d2] | Inactive | 2 | 0.848 | 80 | 
6 | [2H]C1([2H])c2ncccc2C(=O)N1Cc1c(F)cc(-c2cccc3nn(C(F)F)cc23)cc1F [Compound 50, 6-(4-(2-(difluoromethyl)-2H-indazol-4-yl)-2,6-difluorobenzyl)-6,7-dihydro-5H-pyrrolo[3,4-b]pyridin-5-one-7,7-d2] | Inactive | 4 | 0.332 | 85 | 
7 | [2H]C1([2H])c2ncccc2C(=O)N1Cc1c(F)cc(-c2ccc(OC)c3nn(C([2H])([2H])[2H])cc23)cc1F [Compound 51, 6-(2,6-difluoro-4-(7-methoxy-2-(methyl-d3)-2H-indazol-4-yl)benzyl)-6,7-dihydro-5H-pyrrolo[3,4-b]pyridin-5-one-7,7-d2] |  | 8 | 0.173 | 89 | > 10
8 | [2H]C1([2H])c2ncccc2C(=O)N1Cc1c(F)cc(-c2ccc(C)c3nn(C([2H])([2H])[2H])cc23)cc1F [Compound 52, 6-(2,6-difluoro-4-(7-methyl-2-(methyl-d3)-2H-indazol-4-yl)benzyl)-6,7-dihydro-5H-pyrrolo[3,4-b]pyridin-5-one-7,7-d2] | Inactive | 2 | 0.317 | 85 | 
9 | [2H]C1([2H])c2ncccc2C(=O)N1Cc1ccc(-c2cccc3nn(C([2H])([2H])[2H])cc23)cc1F [Compound 53, 6-(2-fluoro-4-(2-(methyl-d3)-2H-indazol-4-yl)benzyl)-6,7-dihydro-5H-pyrrolo[3,4-b]pyridin-5-one-7,7-d2] |  | 9 | 0.325 | 84 | > 10
10 | [2H]C1([2H])c2ncccc2C(=O)N1Cc1ccc(-c2ccc(F)c3nn(C([2H])([2H])[2H])cc23)cc1F [Compound 54, 6-(2-fluoro-4-(7-fluoro-2-(methyl-d3)-2H-indazol-4-yl)benzyl)-6,7-dihydro-5H-pyrrolo[3,4-b]pyridin-5-one-7,7-d2] |  | 5 | 0.382 | 82 | > 10
